Source: patent US20240012010A1, “METHODS OF MONITORING ALPHA-1 ANTITRYPSIN (AAT) DEFICIENCY BY MEASURING POLYMERISED AAT” (Vertex Pharmaceuticals Incorporated, priority 2020, published 2024)

Biological target: T1, AAT polymer (Z variant of the human allele of AAT) (Homo sapiens, UniProt P01009, E366K/V237A)
T1 construct: At study termination, plasma was collected via cardiac puncture; from tissue; host or cells: plasma of transgenic PiZ mice (C57BL/6 background) carrying the human SERPINA1 Z gene
T1 sequence (P01009 25-418 V237A/E366K): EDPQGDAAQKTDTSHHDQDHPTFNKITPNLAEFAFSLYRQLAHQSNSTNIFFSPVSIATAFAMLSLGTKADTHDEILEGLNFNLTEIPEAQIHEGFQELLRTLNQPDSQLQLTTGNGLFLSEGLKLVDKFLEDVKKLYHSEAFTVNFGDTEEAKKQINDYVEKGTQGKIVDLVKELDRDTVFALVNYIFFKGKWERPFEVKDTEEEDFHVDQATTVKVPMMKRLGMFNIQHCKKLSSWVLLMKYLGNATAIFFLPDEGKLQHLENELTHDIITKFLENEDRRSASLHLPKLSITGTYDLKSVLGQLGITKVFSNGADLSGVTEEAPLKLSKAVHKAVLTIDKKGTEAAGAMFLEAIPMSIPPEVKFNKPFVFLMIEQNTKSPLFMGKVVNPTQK
Assay: Pharmacodynamic effect of Compound 2 treatment on polymer levels in a PiZ mouse model (polymer sandwich ELISA of plasma)
Type: in vivo
Details: male PiZ hemizygous mice
Experimental: Eleven week-old male PiZ mice, hemizygous for the Z variant of the human allele of AAT, were orally administered a suspension of either vehicle or Compound 2 QD at 50 and 100 mg/kg/day for 72 hours or 5, 16, 50, and 100 mg/kg/day for 28 days. At study termination, plasma was collected via cardiac puncture and liver tissue was collected and preserved in 10% neutral buffered formalin.
Liver polymer staining was assessed as the % area of liver tissue that stains positively by monoclonal antibody 2C1 immunohistochemistry.
High bind EIA/RIA microplates (Costar, 3590) were coated with 100 μL mouse monoclonal anti-human AAT polymer antibody (Hycult Biotech, HM2289, clone 2C1) diluted to 2 μg/mL in carbonate-bicarbonate buffer (0.2M, pH 9.4) and incubated for 90 minutes at 37° C. (while shaking) or alternatively overnight (up to 72 hours) at 4° C. (still). […] Following color development, 100 μL 1N sulfuric acid was added to stop the reaction and absorbance was immediately measured at 450 nm and 650 nm for background subtraction with a microplate reader (Molecular Devices, SpectraMax M3). […]

AAT plasma polymer levels (QD 5, 16, 50 and 100 mg/kg/day PO for 28 days, vs vehicle (FIG. 5B)): dose response decrease
AAT plasma polymer levels (QD 50 and 100 mg/kg/day PO for 72 hours, vs vehicle (FIG. 5A)): dose response decrease
Structure (SMILES): O=C(O)c1ccc(-c2c(C3CCOCC3)n(-c3ccc(F)c(F)c3)c3cc4cn[nH]c4cc23)cc1 [Compound 2]
